ChEMBL document CHEMBL4184156, “Repurposing Hsp90 inhibitors as antibiotics targeting histidine kinases” (Bioorg Med Chem Lett, 2017)
≈ marks a conversion by molar mass, not a printed value. Calls of active or inactive are those of the source. The calls are words filed in the database; no cut-off is given here.

Legend:
[1] = molecular target: T1, Histidine protein kinase DivJ (Caulobacter vibrioides (strain ATCC 19089 / CB15) (Caulobactercrescentus)) (UniProt Q03228); experiment: (§1) Inhibition of recombinant Caulobacter vibrioides N-terminal His6-tagged DHp-catalytic domain DivJ (188 to 585 residues) autophosphorylation expressed in Escherichia coli BL21(DE3) at 500 uM preincubated for 10 mins followed by [gamma-32P]-ATP addition after 15 mins by phosphotransferase dot blot assay relative to control; set-up: scale not given: the % may be the effect or the level left
T1 sequence (whole entry): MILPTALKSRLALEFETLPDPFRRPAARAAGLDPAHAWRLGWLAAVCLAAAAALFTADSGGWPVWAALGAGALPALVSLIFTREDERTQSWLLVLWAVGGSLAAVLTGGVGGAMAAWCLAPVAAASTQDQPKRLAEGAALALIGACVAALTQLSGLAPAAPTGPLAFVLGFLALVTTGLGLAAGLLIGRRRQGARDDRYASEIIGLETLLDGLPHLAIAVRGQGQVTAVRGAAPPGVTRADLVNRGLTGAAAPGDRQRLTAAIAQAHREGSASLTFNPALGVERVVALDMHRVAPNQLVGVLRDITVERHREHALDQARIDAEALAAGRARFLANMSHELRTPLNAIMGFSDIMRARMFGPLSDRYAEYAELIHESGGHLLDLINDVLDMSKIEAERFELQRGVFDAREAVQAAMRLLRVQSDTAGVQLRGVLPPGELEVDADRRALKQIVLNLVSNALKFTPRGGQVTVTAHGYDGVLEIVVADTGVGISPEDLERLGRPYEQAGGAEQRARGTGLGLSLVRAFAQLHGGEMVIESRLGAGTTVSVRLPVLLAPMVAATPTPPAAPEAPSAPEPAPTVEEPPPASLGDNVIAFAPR

[2] = molecular target: T2, Virulence sensor histidine kinase PhoQ (Salmonella typhimurium (strain LT2 / SGSC1412 / ATCC 700720)) (UniProt P0DM80); experiment: Inhibition of recombinant Salmonella typhimurium N-terminal His6-SUMO-tagged PhoQ (257 to 487 residues) expressed in Escherichia coli BL21 (DE3) assessed as enzyme aggregation at 400 uM after 30 mins by native-PAGE analysis; conditions: Salmonella enterica subsp. enterica serovar Typhimurium
T2 sequence (whole entry): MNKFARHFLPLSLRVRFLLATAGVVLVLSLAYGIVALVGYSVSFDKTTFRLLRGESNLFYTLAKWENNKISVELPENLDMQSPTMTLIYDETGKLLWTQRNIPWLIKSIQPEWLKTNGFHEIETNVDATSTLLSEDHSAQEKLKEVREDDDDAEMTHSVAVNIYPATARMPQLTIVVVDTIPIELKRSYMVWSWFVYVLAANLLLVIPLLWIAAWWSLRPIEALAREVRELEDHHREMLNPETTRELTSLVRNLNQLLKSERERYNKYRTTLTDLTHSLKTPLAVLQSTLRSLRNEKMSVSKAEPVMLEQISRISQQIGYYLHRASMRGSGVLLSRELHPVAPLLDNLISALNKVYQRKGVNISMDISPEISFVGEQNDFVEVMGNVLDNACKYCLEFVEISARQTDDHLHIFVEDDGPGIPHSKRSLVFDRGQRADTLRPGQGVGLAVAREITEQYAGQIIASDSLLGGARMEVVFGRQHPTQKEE

[3] = test system: Histidine protein kinase DivJ (Caulobacter vibrioides); experiment: Inhibition of recombinant Caulobacter vibrioides N-terminal His6-tagged catalytic domain DivJ (188 to 585 residues) expressed in Escherichia coli BL21 (DE3) assessed as enzyme aggregation at 400 uM after 30 mins by native-PAGE analysis
Caulobacter vibrioides = experiment: Antibacterial activity against Caulobacter crescentus NA1000 after 24 hrs by broth dilution method; type: functional; conditions: NA1000, 24 h
Escherichia coli = experiment: Antibacterial activity against Escherichia coli DC2 after 24 hrs by broth dilution method; type: functional; conditions: DC2, 24 h
[4] = molecular target: T2, Virulence sensor histidine kinase PhoQ (Salmonella typhimurium (strain LT2 / SGSC1412 / ATCC 700720)); experiment: as §1, with “Salmonella typhimurium” for “Caulobacter vibrioides”, “His6-SUMO-tagged” for “His6-tagged”, “PhoQ (257” for “DivJ (188”, “487” for “585”, “30” for “15”; set-up: scale not given: the % may be the effect or the level left; conditions: Salmonella enterica subsp. enterica serovar Typhimurium
Bacillus subtilis = experiment: Antibacterial activity against Bacillus subtilis YB886 after 24 hrs by broth dilution method; type: functional; conditions: YB886, 24 h
[5] = molecular target: T3, Cell cycle histidine kinase CckA (Caulobacter vibrioides) (UniProt Q9X688); experiment: Binding affinity to recombinant Caulobacter vibrioides cell cycle histidine kinase CckA delta 3 mutant DHp domain (190 to 562 residues) expressed in Escherichia coli assessed as change in metlting temperature at 30 uM after 2 mins by SYPRO orange dye based DSF assay
T3 sequence (whole entry): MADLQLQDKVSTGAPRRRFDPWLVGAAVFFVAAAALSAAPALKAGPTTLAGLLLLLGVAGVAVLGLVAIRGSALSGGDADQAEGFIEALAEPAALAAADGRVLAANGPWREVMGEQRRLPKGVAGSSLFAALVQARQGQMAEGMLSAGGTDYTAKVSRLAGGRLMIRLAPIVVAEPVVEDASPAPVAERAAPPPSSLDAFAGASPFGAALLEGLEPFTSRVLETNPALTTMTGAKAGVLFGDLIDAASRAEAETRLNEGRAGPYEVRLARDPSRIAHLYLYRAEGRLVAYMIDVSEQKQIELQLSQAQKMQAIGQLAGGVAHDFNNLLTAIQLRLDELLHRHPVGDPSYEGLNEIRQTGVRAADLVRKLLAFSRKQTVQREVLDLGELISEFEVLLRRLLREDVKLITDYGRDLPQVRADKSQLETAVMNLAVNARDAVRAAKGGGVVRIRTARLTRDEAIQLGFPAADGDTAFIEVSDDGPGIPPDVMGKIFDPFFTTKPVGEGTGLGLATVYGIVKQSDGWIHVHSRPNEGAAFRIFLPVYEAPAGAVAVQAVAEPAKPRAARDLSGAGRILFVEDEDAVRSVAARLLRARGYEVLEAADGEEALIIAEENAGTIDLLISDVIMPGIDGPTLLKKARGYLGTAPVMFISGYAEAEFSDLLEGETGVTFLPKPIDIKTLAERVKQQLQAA

[6] = molecular target: T1, Histidine protein kinase DivJ (Caulobacter vibrioides (strain ATCC 19089 / CB15) (Caulobactercrescentus)); experiment: Inhibition of recombinant Caulobacter vibrioides N-terminal His6-tagged DHp-catalytic domain DivJ (188 to 585 residues) expressed in Escherichia coli BL21 (DE3) at 800 uM preincubated for 10 mins followed by [gamma-32P]-ATP addition after 15 mins by phosphotransferase dot blot assay
[7] = molecular target: T1, Histidine protein kinase DivJ (Caulobacter vibrioides (strain ATCC 19089 / CB15) (Caulobactercrescentus)); experiment: Inhibition of recombinant Caulobacter vibrioides N-terminal His6-tagged DHp-catalytic domain DivJ (188 to 585 residues) expressed in Escherichia coli BL21 (DE3) at 400 uM preincubated for 10 mins followed by [gamma-32P]-ATP addition after 15 mins by phosphotransferase dot blot assay
[8] = molecular target: T2, Virulence sensor histidine kinase PhoQ (Salmonella typhimurium (strain LT2 / SGSC1412 / ATCC 700720)); experiment: Inhibition of recombinant Salmonella typhimurium N-terminal His6-SUMO-tagged PhoQ (257 to 487 residues) expressed in Escherichia coli BL21 (DE3) assessed as enzyme aggregation at 800 uM after 30 mins by native-PAGE analysis; conditions: Salmonella enterica subsp. enterica serovar Typhimurium
[9] = molecular target: T4, Virulence sensor histidine kinase PhoQ (Salmonella typhimurium (strain LT2 / SGSC1412 / ATCC 700720), UniProt P0DM80); experiment: Displacement of TNP-ATP from recombinant Salmonella typhimurium GST-tagged DHp-catalytic domain PhoQ (332 to 487 residues) expressed in Escherichia coli XA90 aafter 10 mins by fluorescence assay; set-up: species or system Salmonella enterica subsp. enterica serovar Typhimurium
T4 sequence (P0DM80 whole entry): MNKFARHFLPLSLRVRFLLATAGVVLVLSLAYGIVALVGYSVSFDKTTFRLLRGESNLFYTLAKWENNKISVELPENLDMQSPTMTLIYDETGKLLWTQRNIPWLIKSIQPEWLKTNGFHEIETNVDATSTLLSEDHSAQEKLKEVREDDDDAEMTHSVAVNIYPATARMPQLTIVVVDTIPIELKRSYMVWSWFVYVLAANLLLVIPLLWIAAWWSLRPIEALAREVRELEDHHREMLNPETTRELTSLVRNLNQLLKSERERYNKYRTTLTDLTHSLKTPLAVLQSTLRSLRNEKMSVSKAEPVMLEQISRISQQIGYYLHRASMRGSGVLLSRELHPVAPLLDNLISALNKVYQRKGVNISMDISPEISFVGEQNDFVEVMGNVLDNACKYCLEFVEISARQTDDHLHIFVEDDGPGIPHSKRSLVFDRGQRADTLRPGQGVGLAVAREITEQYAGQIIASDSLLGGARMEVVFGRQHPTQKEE

Row | Structure (SMILES) | Activity [1] | inhibition [2] | inhibition [3] | MIC (Caulobacter vibrioides) | MIC (Escherichia coli) | Activity [4] | MIC (Bacillus subtilis) | ΔTm [5] | inhibition [6] | inhibition [7] | inhibition [8] | Kd [9]
1 | COc1ccc(-c2c(C)n[nH]c2-c2cc(Cl)c(O)cc2O)cc1 | 118% | inactive | inactive | 225 µM (≈ 74.4 µg/mL) | 37.5 to 75 µM (≈ 12.4 to 24.8 µg/mL) | 66% | 150 to 225 µM (≈ 49.6 to 74.4 µg/mL) | 5 °C |  |  |  | 
2 | CCc1cc(-c2[nH]nc(C)c2-c2ccc3c(c2)OCCO3)c(O)cc1O | 70% | inactive |  | 150 to 225 µM (≈ 52.9 to 79.3 µg/mL) | 37.5 to 75 µM (≈ 13.2 to 26.4 µg/mL) | 9% | 112 µM (≈ 39.6 µg/mL) | 4 °C | Active | inactive | inactive | 
3 | CC(C)=CCc1c(O)cc2occ(Cl)c(=O)c2c1O |  |  |  |  |  |  |  |  |  |  |  | 391 µM
